Values after ≈ are worked out from the molar mass of the structure shown.
test system: Mycobacterium tuberculosis variant bovis; assay: Antimicrobial activity against Mycobacterium bovis; type: functional

**Q.** With `O=C(N[C@@H]1COc2nc([N+](=O)[O-])cn2C1)c1ccc(OC(F)(F)F)cc1` as the compound, how does the MIC read?
**A.** 1.34 µM (≈ 0.499 µg/mL)

**Q.** How did the MIC turn out when `O=C(N[C@@H]1COc2nc([N+](=O)[O-])cn2C1)OCc1ccc(OC(F)(F)F)cc1` was run?
**A.** 0.037 µM (≈ 0.0149 µg/mL)

**Q.** With `O=C(Nc1ccc(OC(F)(F)F)cc1)N[C@@H]1COc2nc([N+](=O)[O-])cn2C1` as the compound, how does the MIC read?
**A.** 0.039 µM (≈ 0.0151 µg/mL)

**Q.** `O=C(Nc1ccc(OC(F)(F)F)cc1)O[C@@H]1COc2nc([N+](=O)[O-])cn2C1` was tested. Which MIC did it give?
**A.** 0.039 µM (≈ 0.0151 µg/mL)

**Q.** For `O=C(NCc1ccc(OC(F)(F)F)cc1)O[C@@H]1COc2nc([N+](=O)[O-])cn2C1`, which MIC is on record?
**A.** 0.075 µM (≈ 0.0302 µg/mL)

**Q.** Which MIC does the source give for `O=[N+]([O-])c1cn2c(n1)OC[C@@H](OCc1ccc(OC(F)(F)F)cc1)C2` [PRETOMANID] here?
**A.** 0.167 µM (≈ 0.06 µg/mL)

— ChEMBL document CHEMBL1944507, “Structure-activity relationships for amide-, carbamate-, and urea-linked analogues of the tuberculosis drug (6S)-2-nitro-6-{[4-(trifluoromethoxy)benzyl]oxy}-6,7-dihydro-5H-imidazo[2,1-b][1,3]oxazine (PA-824)” (J Med Chem, 2012)
